“Also recorded” adds a separate entry of the source. Read-outs that look alike come from different tables or passages of the source.
Assays:
Type in all cases: cell-based, rat
TNF-α mRNA = TNF-α mRNA after SD in slice cultures; details: two hours after SD evoked every 7-9 minutes for an hour
Source text: This prompted the inventors to examine whether insulin could reduce SD susceptibility by increasing CA3 pyramidal neuron bursting. The inventors induced SD trans-synaptically in rat HSC using electrical stimuli (100 μs pulses @ 10 Hz for 1 s) ranging from 1 to 10,000 nC in order to determine SD threshold in sham and experimental groups (Pusic et al., 2011). Results were based on n≥3-6/group. […] This insulin dose approximates the pharmacological levels seen in humans treated with nasal insulin. […] The inventors hypothesized that the effect of insulin occurred through IGF-1 receptor cross-talk.
After an hour of SD, slices were allowed to recover for 2 hours and then harvested for total RNA isolation and PCR amplification of cytokine targets. […] Next, dilution curve amplifications of primers were checked to be sure primers produced uniform amplification differences. For example, optimal amplifications show a uniform increase in Ct thresholds. In contrast, amplifications are not uniform with defective primers.
These positive samples were used for PCR array screening. Next, PCR array technology was used as a means more sensitive than traditional gene chips to look for evidence of T-cells in adult hippocampal slice cultures. The gene expression screen for inflammatory cytokine changes was completed by RT^2 Profiler™ PCR Arrays.

[1] = test system: CA3 area evoked excitability; parameters: key to evoked excitability response rating: a normal field potential (FP; left) was rated “1”; a FP that included stimulus-related bursting activity (center) was rated “2”; a stimulus that resulted in spreading depression (right) was rated is a “3”; details: for evoked excitability versus control: H2O2 exposure
Protocol: FIGS. 11a-11g IGF-1 decreased CA3 oxidative stress (OS) and its related hyperexcitability. […] Relative evoked excitability was determined as a sum of responses seen (e.g., responses of “2” and a “3” yielded an overall excitability score of five). […] (FIGS. 11d-e) Exemplary images of control (FIG. 11d) slice culture OS compared to increased slice OS induced by exposure to menadione (FIG. 11e). Calibration bar, 200 Dotted boxes indicate CA3 areas of interest used for relative OS quantifications (f and g).

[2] = test system: OS in microglia and astrocytes of hippocampal slice cultures; experiment: Cell-specific OS from SD (CellROX, confocal microscopy); details: IGF-1 100 ng/mL for three days
Source text: FIG. 13 Oxidative stress from SD preferentially rises in astrocytes and microglia, with the latter effect mitigated by IGF-1. The inventors have recently shown that spreading depression (SD), the most likely cause of migraine aura and perhaps migraine (Lauritzen and Kraig, 2005), occurs with increased oxidative stress (OS) and that OS, in turn, increases SD susceptibility (Grinberg et al., 2012). Reactive oxygen and nitrogen species that cause OS have both autocrine and paracrine signaling capacities that can affect SD susceptibility by altering excitability (Kishida and Klann, 2007). Accordingly, the inventors looked for the cellular origin of OS from SD. Here the inventors used hippocampal slice cultures (HSC) to probe for cell-specific changes in OS from SD. SD was induced trans-synaptically in rat HSCs using bipolar electrical stimuli at the dentate gyrus (Pusic et al., 2011). Six SDs were induced every 7-9 min over an hr, followed by 24 hr incubation in CellROX™, a fixable fluorogenic probe for measuring OS (Grinberg et al., 2012). HSCs were then fixed in 10% buffered formalin phosphate. Other fixatives (PLP, 4% paraformaldehyde) prevented detection of OS change. Tissue was then labeled for neurons (anti-NeuN), oligodendrocytes (anti-RIP), astrocytes (anti-GFAP), or for microglia (isolectin GS-IB4). […]

[3] = test system: myelin basic protein (MBP); experiment: Myelin basic protein (MBP) Western blot in hippocampal slice cultures
Protocol: FIGS. 14A-14C. Reduced myelin basic protein (MBP) from SD depends on IFN-γ/T-cell activation and sphingomylinase. […] Thus, confirming involvement of T cells.
FIGS. 15A-15C. Physiological and transient elevation [i.e., phasic (see FIG. 1)] of IFN-γ triggers completely opposite effects. Transient (i.e., 500 U/mL×12 hours; all groups n≥5) exposure of hippocampal slice cultures was nutritive when assessed seven days later.

Row | Molecule | TNF-α mRNA levels (TNF-α mRNA) | evoked excitability versus control ([1]; without or with IGF-1 pretreatment for 3 days) | evoked excitability versus control ([1]; without or with acute IGF-1, 30 minutes after H2O2) | CA3 area evoked excitability ([1]; IGF-1 exposure alone) | evoked excitability response rating ([1]; IGF-1 exposure alone) | OS from SD in microglia [2] | astrocytic OS from SD [2] | MBP levels ([3]; IFN-γ with co-administration of TNF-α (100 ng/mL)) | MBP levels ([3]; chronically applied IFN-γ 500 U/mL × 24 hours) | MBP versus baseline ([3]; transient (pulsed) IFN-γ 500 U/mL × 12 hours, assessed seven days later)
1 | Insulin-like growth factor 1 [IGF-1] | did not involve a change in TNF-α mRNA levels | abrogated; also recorded: non-significant difference from control | abrogated | no significant impact | 1 | decreased | unchanged | – | – | –
2 | Interferon-gamma (protein, listed as Homo sapiens) MKYTSYILAFQLCIVLGSLGCYCQDPYVKEAENLKKYFNAGHSDVADNGTLFLGILKNWKEESDRKIMQSQIVSFYFKLFKNFKDDQSIQKSVETIKEDMNVKFFNSNKKKRDDFEKLTNYSVTDLNVQRKAIHELIQVMAELSPAAKTGKRKRSQMLFRGRRASQ | – | – | – | – | – | – | – | further decline in MBP | reduce MBP levels | MBP rises above baseline; also recorded: increased above baseline

— patent publication US10391150B2, “Treatments for migraine and related disorders” (The University of Chicago, priority 2011, dated 2019)
